Source: ChEMBL document CHEMBL1149372, “Discovery of novel and potent thiazoloquinazolines as selective Aurora A and B kinase inhibitors” (J Med Chem, 2006)
Values after ≈ are worked out from the molar mass of the structure shown.

Key:
SW-620 [1] = assay: Inhibition of phosphorylation of histone H3 in human SW620 cells; assay type: functional, cell-based
Aurora kinase A = target: T1, Aurora kinase A (Homo sapiens, UniProt O14965)
T1 sequence (O14965 whole entry): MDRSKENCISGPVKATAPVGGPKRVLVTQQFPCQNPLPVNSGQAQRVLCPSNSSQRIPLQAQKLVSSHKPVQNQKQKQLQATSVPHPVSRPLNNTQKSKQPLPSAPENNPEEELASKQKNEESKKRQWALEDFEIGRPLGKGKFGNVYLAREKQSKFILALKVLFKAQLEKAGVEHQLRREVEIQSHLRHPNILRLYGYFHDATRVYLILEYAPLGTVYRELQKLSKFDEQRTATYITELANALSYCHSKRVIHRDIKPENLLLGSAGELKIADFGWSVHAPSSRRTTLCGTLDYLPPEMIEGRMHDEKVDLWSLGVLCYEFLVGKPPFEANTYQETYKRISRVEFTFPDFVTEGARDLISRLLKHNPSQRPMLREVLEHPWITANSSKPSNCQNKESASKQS
Description: Inhibition of Aurora A kinase activity

[2] = Inhibition of Aurora B-INCENP complex activity
[3] = Volume of distribution in rat; assay type: ADME, organism-based; conditions: in vivo, read-out: Vdss
[4] = Clearance in rat; assay type: ADME, organism-based; conditions: in vivo
[5] = Half life in rat; assay type: ADME, organism-based; conditions: in vivo
[6] = target: Cyclin-dependent kinase 2 (Homo sapiens, UniProt P24941); assay: Inhibitory activity against CDK2
[7] = target: Tyrosine-protein kinase CSK (Homo sapiens, UniProt P41240); assay: Inhibitory activity against CSK
[8] = Solubility in phosphate buffer at pH 7.4, 25 degC; assay type: physicochemical
Focal adhesion kinase 1 = Focal adhesion kinase 1 (Homo sapiens, UniProt Q05397); assay: Inhibitory activity against FAK
[9] = target: Fibroblast growth factor receptor (Homo sapiens, UniProt P22607+P11362+P22455+P21802); assay: Inhibitory activity against FGFR; assay type: protein assay
[10] = target: Insulin-like growth factor 1 receptor (Homo sapiens, UniProt P08069); assay: Inhibitory activity against IGFR
[11] = target: T2, Tyrosine-protein kinase JAK3 (Homo sapiens, UniProt P52333); assay: Inhibitory activity against JAK3
T2 sequence (P52333 whole entry): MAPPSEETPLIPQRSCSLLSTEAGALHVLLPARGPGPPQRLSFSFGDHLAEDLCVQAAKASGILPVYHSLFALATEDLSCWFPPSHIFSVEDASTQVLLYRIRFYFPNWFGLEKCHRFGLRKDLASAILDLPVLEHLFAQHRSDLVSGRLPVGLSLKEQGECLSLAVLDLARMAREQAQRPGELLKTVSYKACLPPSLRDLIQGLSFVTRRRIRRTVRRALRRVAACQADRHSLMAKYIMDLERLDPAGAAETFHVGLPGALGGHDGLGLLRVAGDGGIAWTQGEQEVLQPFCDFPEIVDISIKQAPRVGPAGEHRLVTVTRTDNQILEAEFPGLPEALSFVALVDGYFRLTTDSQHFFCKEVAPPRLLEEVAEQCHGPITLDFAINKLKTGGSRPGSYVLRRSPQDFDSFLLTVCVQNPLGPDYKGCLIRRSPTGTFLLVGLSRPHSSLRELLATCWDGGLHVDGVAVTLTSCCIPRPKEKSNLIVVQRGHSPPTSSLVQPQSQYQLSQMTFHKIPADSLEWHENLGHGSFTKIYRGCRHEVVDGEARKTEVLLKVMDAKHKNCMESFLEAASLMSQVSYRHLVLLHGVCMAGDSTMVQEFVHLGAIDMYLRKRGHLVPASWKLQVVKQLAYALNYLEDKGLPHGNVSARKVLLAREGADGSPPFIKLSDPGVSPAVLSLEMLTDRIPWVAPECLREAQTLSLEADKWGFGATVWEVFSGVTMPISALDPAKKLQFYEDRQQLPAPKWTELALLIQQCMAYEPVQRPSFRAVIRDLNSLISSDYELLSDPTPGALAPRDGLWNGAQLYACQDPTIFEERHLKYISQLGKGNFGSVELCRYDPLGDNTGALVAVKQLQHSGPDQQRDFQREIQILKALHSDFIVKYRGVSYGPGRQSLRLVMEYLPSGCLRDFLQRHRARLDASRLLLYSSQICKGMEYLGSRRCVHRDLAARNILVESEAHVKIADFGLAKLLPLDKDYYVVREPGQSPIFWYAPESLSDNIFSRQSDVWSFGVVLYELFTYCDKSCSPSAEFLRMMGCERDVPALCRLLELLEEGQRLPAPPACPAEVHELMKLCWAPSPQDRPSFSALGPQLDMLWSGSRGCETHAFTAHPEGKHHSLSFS

[12] = target: Mitogen-activated protein kinase 8 (Homo sapiens, UniProt P45983); assay: Inhibitory activity against JNK1alpha
[13] = target: Vascular endothelial growth factor receptor 2 (Homo sapiens, UniProt P35968); assay: Inhibitory activity against KDR
[14] = target: Mitogen-activated protein kinase 14 (Homo sapiens, UniProt Q16539); assay: Inhibitory activity against p38-alpha MAPK
[15] = target: cAMP-dependent protein kinase (PKA) (Homo sapiens, UniProt P22694+P17612+P22612); assay: Inhibitory activity against PKA; assay type: protein assay
[16] = target: Proto-oncogene tyrosine-protein kinase Src (Homo sapiens, UniProt P12931); assay: Inhibitory activity against SRC
[17] = Free drug level in rat serum albumin; assay type: ADME, organism-based
[18] = Distribution coefficient of the compound, log D at pH 7.4; assay type: physicochemical; conditions: octanol/water
SW-620 [19] = assay: Antiproliferative activity against human colorectal carcinoma SW620 cells
[20] = Solubility in Tris buffer at pH 9.0, 25 degC; assay type: physicochemical
Mus musculus = species: Mus musculus; assay: Conversion to parent, N-(3-fluorophenyl)-2-{2-[(7-{3 -[4-(hydroxymethyl)piperidin-1 -yl]propoxy}-6-methoxyquinazol in-4-yl)amino]-1,3-thiazol-5-y l}acetamide in mouse plasma; assay type: ADME, organism-based; conditions: in vivo
Aurora kinase B = Aurora kinase B (Homo sapiens, UniProt Q96GD4); assay: Inhibition of Aurora-B immunoprecipitated from mitotic cells; assay type: functional
Chain of Aurora kinase B (Q96GD4 whole entry): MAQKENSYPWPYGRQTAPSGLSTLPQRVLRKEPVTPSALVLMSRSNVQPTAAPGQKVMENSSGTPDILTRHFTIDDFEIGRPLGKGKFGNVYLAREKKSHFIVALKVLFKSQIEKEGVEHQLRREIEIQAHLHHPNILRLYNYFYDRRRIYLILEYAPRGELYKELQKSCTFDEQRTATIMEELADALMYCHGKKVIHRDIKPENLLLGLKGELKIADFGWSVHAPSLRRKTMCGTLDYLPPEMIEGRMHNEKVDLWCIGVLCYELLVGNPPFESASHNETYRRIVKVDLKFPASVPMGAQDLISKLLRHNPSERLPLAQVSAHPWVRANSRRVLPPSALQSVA

Chain of Mitogen-activated protein kinase 8 (P45983 whole entry): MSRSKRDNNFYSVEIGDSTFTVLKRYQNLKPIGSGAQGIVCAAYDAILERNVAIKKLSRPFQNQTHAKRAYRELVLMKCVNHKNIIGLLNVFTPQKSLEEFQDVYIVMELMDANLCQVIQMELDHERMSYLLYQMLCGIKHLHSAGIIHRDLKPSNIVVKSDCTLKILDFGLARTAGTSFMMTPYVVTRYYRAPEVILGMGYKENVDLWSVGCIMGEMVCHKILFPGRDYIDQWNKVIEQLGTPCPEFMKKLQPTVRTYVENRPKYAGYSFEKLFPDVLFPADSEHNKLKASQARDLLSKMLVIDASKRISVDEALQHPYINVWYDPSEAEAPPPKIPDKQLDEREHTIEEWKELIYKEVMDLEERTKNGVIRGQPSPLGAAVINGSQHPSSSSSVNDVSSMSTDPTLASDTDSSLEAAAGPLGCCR
Chain of Mitogen-activated protein kinase 14 (Q16539 whole entry): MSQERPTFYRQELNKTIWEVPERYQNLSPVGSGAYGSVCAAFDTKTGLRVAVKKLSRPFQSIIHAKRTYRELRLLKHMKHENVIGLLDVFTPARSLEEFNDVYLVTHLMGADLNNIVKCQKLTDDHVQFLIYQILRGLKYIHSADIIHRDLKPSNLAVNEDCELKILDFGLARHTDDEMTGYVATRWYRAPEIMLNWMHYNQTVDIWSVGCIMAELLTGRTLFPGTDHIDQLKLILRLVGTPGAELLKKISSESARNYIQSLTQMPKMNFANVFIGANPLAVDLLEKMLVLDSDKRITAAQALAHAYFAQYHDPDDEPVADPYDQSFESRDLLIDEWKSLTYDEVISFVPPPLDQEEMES
Chain of Proto-oncogene tyrosine-protein kinase Src (P12931 2-536 limits assumed): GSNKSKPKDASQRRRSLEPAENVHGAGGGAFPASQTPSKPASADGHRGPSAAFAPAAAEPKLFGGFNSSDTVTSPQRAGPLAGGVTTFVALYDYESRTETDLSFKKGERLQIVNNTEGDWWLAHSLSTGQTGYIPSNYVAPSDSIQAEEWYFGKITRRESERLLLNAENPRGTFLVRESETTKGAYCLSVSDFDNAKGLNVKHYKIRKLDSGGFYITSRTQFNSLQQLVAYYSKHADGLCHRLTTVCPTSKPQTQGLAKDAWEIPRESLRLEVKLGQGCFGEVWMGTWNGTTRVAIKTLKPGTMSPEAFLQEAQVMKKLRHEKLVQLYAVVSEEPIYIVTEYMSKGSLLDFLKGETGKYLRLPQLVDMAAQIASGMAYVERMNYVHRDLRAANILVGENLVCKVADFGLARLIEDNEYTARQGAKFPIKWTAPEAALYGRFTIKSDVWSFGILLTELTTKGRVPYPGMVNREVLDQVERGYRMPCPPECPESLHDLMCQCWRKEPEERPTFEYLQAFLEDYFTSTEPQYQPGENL
Chain of Tyrosine-protein kinase CSK (P41240 whole entry): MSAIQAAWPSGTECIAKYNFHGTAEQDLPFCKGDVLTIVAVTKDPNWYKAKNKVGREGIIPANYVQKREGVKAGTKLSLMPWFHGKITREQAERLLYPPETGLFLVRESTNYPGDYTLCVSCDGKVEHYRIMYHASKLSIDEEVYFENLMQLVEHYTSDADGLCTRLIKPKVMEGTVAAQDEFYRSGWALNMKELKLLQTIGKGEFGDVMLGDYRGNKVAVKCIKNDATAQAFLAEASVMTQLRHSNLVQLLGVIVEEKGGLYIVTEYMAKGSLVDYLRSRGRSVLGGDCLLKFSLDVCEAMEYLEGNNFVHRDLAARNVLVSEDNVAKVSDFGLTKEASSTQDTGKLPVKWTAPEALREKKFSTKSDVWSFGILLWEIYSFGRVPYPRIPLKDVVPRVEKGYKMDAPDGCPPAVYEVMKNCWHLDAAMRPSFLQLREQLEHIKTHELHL
Chain of Insulin-like growth factor 1 receptor (P08069 31-736 limits assumed): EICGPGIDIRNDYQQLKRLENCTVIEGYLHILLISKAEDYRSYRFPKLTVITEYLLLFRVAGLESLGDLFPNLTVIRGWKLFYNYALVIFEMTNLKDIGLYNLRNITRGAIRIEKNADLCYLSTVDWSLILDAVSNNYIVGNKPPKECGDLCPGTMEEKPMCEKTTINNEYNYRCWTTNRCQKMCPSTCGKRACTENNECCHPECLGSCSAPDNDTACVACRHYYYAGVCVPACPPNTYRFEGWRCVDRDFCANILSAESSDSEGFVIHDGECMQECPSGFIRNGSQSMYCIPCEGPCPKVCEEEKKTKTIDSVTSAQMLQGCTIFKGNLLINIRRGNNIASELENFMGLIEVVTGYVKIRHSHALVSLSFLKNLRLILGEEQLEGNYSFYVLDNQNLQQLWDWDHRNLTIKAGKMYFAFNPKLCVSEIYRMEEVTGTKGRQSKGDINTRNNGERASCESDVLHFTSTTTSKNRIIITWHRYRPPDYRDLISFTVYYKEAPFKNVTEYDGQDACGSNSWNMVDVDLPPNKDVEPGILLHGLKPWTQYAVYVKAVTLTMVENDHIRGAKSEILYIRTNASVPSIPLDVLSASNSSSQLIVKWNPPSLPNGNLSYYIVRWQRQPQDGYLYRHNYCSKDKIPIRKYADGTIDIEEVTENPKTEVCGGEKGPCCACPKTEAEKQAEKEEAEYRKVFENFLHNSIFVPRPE
Chain of Insulin-like growth factor 1 receptor (P08069 741-1367 limits assumed): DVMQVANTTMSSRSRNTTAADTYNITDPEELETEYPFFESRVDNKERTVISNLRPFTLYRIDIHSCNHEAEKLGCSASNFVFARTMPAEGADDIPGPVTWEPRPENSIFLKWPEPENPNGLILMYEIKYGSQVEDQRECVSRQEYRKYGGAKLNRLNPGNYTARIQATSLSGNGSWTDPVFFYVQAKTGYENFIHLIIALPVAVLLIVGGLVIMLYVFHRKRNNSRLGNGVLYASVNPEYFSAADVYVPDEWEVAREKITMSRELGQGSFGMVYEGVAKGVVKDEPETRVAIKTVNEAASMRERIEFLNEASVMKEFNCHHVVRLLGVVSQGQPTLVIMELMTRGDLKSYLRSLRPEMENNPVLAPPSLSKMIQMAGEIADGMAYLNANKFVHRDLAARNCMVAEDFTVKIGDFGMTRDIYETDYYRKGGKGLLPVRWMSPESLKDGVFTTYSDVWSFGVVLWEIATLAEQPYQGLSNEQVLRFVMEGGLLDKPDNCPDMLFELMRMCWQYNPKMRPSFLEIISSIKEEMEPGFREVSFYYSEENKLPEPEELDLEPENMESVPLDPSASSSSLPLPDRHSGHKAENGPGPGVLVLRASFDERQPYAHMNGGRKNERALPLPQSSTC
Chain of Vascular endothelial growth factor receptor 2 (P35968 whole entry): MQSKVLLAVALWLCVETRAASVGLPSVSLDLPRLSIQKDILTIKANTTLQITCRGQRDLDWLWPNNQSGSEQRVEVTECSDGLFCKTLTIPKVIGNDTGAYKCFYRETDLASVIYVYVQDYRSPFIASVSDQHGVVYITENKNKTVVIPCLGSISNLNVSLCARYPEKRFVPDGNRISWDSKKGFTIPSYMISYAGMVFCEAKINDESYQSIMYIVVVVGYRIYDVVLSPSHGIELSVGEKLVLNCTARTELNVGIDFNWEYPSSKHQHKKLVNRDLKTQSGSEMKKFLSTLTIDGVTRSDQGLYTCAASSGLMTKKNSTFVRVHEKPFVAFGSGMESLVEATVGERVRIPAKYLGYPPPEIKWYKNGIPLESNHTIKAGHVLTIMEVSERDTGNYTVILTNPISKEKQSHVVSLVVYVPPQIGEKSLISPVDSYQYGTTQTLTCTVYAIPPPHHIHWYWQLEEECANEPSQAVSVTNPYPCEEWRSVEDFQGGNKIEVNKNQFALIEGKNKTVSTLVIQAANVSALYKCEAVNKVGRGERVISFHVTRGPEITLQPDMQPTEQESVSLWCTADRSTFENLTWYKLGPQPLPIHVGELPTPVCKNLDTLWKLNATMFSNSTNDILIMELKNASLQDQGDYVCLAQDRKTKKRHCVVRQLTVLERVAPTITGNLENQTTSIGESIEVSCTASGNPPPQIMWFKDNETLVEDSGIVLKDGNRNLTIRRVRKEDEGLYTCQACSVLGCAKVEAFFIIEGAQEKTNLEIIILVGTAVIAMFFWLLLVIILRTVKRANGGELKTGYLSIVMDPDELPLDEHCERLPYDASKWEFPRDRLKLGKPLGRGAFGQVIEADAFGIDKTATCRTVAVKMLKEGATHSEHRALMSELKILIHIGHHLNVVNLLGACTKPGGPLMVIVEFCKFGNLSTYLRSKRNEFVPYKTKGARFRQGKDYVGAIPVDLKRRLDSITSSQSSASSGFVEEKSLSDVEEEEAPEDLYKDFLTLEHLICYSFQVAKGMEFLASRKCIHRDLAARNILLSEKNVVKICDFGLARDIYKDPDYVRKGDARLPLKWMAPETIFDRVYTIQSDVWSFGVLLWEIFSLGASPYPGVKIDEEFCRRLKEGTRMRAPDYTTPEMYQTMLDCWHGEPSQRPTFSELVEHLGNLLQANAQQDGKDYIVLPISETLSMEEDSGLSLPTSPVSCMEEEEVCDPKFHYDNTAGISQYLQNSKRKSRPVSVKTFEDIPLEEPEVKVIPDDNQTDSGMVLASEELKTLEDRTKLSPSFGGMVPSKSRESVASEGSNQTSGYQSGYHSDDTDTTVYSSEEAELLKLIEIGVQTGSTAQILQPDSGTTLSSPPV

Compound: COc1cc2c(Nc3ncc(CC(=O)Nc4cccc(F)c4F)s3)ncnc2cc1OCCCN1CCC[C@H]1CO
- IC50 (SW-620 [1]): 0.001 µM
- IC50 (Aurora kinase A): 0.002 µM

Compound: COc1cc2c(Nc3ncc(CNC(=O)c4cccc(F)c4)s3)ncnc2cc1OCCCN1CCC(CO)CC1
- IC50 [2]: 0.136 µM
- IC50 (SW-620 [1]): 2.8 µM
- IC50 (Aurora kinase A): 0.111 µM

Compound: COCCOc1cc2ncnc(Nc3ncc(CC(=O)Nc4cccc(F)c4)s3)c2cc1OC
- IC50 [2]: 0.008 µM
- IC50 (SW-620 [1]): 0.01 µM
- IC50 (Aurora kinase A): 0.001 µM

Compound: COc1cc2c(Nc3ncc(CC(=O)Nc4cccc(F)c4)s3)ncnc2cc1OCCCN1CCC(CO)CC1
- Vd [3]: 1.8 L/kg
- clearance [4]: 16.6 mL/min/kg
- half-life [5]: 5 h
- IC50 [6]: 62 µM
- IC50 [7]: 21 µM
- IC50 [2]: 0.007 µM
- IC50 (SW-620 [1]): 0.005 µM
- solubility [8]: 35 µg/mL (≈ 0.0603 mM)
- IC50 (Focal adhesion kinase 1): 4 µM
- IC50 [9]: 8 µM
- IC50 [10]: 13 µM
- IC50 [11]: 25 µM
- IC50 [12]: > 100 µM
- IC50 [13]: 1 µM
- IC50 [14]: > 100 µM
- IC50 [15]: > 100 µM
- IC50 [16]: 3 µM
- fraction unbound [17]: 0.024
- logD [18]: 3.2
- IC50 (SW-620 [19]): 0.002 µM

Compound: COc1cc2c(Nc3ncc(C)s3)ncnc2cc1OCCCN1CCOCC1
- IC50 [2]: 0.133 µM
- IC50 (SW-620 [1]): 1.1 µM
- IC50 (Aurora kinase A): 0.043 µM

Compound: CCCCc1cnc(Nc2ncnc3cc(OCCCN4CCOCC4)c(OC)cc23)s1
- IC50 [2]: 0.063 µM
- IC50 (SW-620 [1]): 1.9 µM
- IC50 (Aurora kinase A): 0.006 µM

Compound: COc1cc2c(Nc3ncc(SCc4cccc(F)c4)s3)ncnc2cc1OCCCN1CCC(CO)CC1
- IC50 [2]: < 0.001 µM
- IC50 (SW-620 [1]): 0.4 µM
- IC50 (Aurora kinase A): < 0.001 µM

Compound: CCN(C(=O)Cc1cnc(Nc2ncnc3cc(OCCCN4CCOCC4)c(OC)cc23)s1)c1ccccc1
- IC50 [2]: 0.286 µM
- IC50 (SW-620 [1]): 2.3 µM
- IC50 (Aurora kinase A): 0.055 µM

Compound: CCN(CCO)CCCOc1cc2ncnc(Nc3ncc(CC(=O)Nc4cccc(F)c4)s3)c2cc1OC
- IC50 [2]: < 0.001 µM
- IC50 (SW-620 [1]): < 0.001 µM
- IC50 (Aurora kinase A): < 0.001 µM

Compound: COc1cc2c(Nc3ncc(CC(=O)Nc4cccc(F)c4)s3)ncnc2cc1OCCCN1CCOCC1
- IC50 [2]: < 0.001 µM
- IC50 (SW-620 [1]): < 0.001 µM
- IC50 (Aurora kinase A): < 0.001 µM

Compound: COc1cc2c(Nc3nc(C(=O)Nc4ccc(F)cc4)c[nH]3)ncnc2cc1OCCCN1CCOCC1
- IC50 [2]: > 1 µM
- IC50 (SW-620 [1]): > 10 µM
- IC50 (Aurora kinase A): > 1 µM

Compound: COc1cc2c(Nc3ncc(Oc4cccc(F)c4)s3)ncnc2cc1OCCCN1CCC(CO)CC1
- IC50 [2]: < 0.001 µM
- IC50 (SW-620 [1]): 0.2 µM

Compound: COc1cc2c(Nc3ncc(CC(=O)Nc4cccc(F)c4)o3)ncnc2cc1OCCCN1CCOCC1
- IC50 [2]: 0.341 µM
- IC50 (SW-620 [1]): 1 µM
- IC50 (Aurora kinase A): 0.472 µM

Compound: COc1cc2c(Nc3ncc(C(=O)Nc4ccc(F)cc4)s3)ncnc2cc1OCCCN1CCOCC1
- IC50 [2]: 0.049 µM
- IC50 (SW-620 [1]): 0.6 µM
- IC50 (Aurora kinase A): 0.001 µM

Compound: COc1cc2c(Nc3ncc(CC(=O)Nc4cccc(F)c4)s3)ncnc2cc1OCCN1CCC(CCO)CC1
- IC50 [2]: < 0.001 µM
- IC50 (SW-620 [1]): 0.019 µM
- IC50 (Aurora kinase A): < 0.001 µM

Compound: COc1cc2c(Nc3ncc(CC(=O)Nc4cccc(F)c4)s3)ncnc2cc1OCCCN1CCC(COP(=O)(O)O)CC1
- solubility [20]: 10000 µg/mL (≈ 15.1 mM)
- T1/2 (Mus musculus): 0.7 h

Compound: COc1cc2c(Nc3ncc(CC(=O)Nc4ccccc4C(N)=O)s3)ncnc2cc1OCCCN1CCC[C@H]1CO
- IC50 [2]: 0.282 µM
- IC50 (SW-620 [1]): > 10 µM
- IC50 (Aurora kinase A): 0.452 µM

Compound: COc1cc2c(Nc3ncc(CC(=O)Nc4cccc(N(C)C)c4)s3)ncnc2cc1OCCCN1CCC[C@H]1CO
- IC50 [2]: 0.048 µM
- IC50 (SW-620 [1]): 0.6 µM
- IC50 (Aurora kinase A): 0.483 µM

Compound: COc1cc2c(Nc3ncc(CC(=O)Nc4cccc(F)c4)s3)ncnc2cc1OCCCNCCO
- IC50 [2]: 0.001 µM
- IC50 (SW-620 [1]): 0.08 µM

Compound: C#CCN(CCO)CCCOc1cc2ncnc(Nc3ncc(CC(=O)Nc4cccc(F)c4)s3)c2cc1OC
- IC50 [2]: < 0.001 µM
- IC50 (SW-620 [1]): 0.02 µM
- IC50 (Aurora kinase A): < 0.001 µM

Compound: COc1cc2c(Nc3ncc(CC(=O)Nc4cccc(F)c4)s3)ncnc2cc1OCCCN1CCC[C@H]1CO
- IC50 [2]: < 0.001 µM
- IC50 (SW-620 [1]): 0.004 µM
- IC50 (Aurora kinase A): < 0.001 µM

Compound: COc1cc2c(Nc3ncc(CC(=O)Nc4cccc(F)c4)s3)ncnc2cc1OCCCN1CCN(C)CC1
- IC50 [2]: < 0.001 µM
- IC50 (SW-620 [1]): 0.002 µM
- IC50 (Aurora kinase A): < 0.001 µM

Compound: COc1cc2c(Nc3ncc(CNS(=O)(=O)c4cccc(F)c4)s3)ncnc2cc1OCCCN1CCC(CO)CC1
- IC50 [2]: 0.028 µM
- IC50 (SW-620 [1]): 0.8 µM
- IC50 (Aurora kinase A): 0.012 µM

Compound: COc1cc2c(Nc3nc(CC(=O)Nc4cccc(F)c4)cs3)ncnc2cc1OCCCN1CCOCC1
- IC50 [2]: 0.012 µM
- IC50 (SW-620 [1]): 0.2 µM
- IC50 (Aurora kinase A): 0.578 µM

Compound: COc1cccc(NC(=O)Cc2cnc(Nc3ncnc4cc(OCCCN5CCC[C@H]5CO)c(OC)cc34)s2)c1
- IC50 [2]: 0.005 µM
- IC50 (SW-620 [1]): 1 µM
- IC50 (Aurora kinase A): 0.106 µM

Compound: COc1cc2c(Nc3ncc(CC(=O)NCCC(C)C)s3)ncnc2cc1OCCCN1CCOCC1
- IC50 [2]: 0.005 µM
- IC50 (SW-620 [1]): 0.4 µM
- IC50 (Aurora kinase A): 0.158 µM

Compound: CCS(=O)(=O)Nc1ccc2c(c1)/C(=C(/Nc1ccc(CN3CCCCC3)cc1)c1ccccc1)C(=O)N2 [HESPERADIN]
- IC50 (Aurora kinase B): 0.25 µM
